Assay results reported in patent US20150011528A1, “PHENYLIMIDE-CONTAINING BENZOTHIAZOLE DERIVATIVE OF ITS SALT AND PHARMACEUTICAL COMPOSITION COMPRISING THE SAME” (YUHAN CORPORATION, priority 2011, published 2015).

The compounds below were run on A549 cells (assay: Cell Migration Assay (transwell, laminin)). Details: Homo sapiens, laminin 10 μg/mL in lower well, test compounds 0.39˜100 μM, 6 hours at 37° C.
Type: cell-based
Experimental: Cell migration was measured with a 24-well transwell having a polycarbonate membrane (8.0 μm pore size, Costar) at the bottom of the upper chamber. Each lower well was treated with laminin (10 μg/mL) and test compounds (0.39˜100 μM) along with a serum-free RPMI1640 medium. A549 cells (Korean Cell Line Bank) were suspended in a serum-free RPMI1640 medium at a concentration of 1×10^6 cells/mL and then the test compounds were added thereto at the indicated concentrations. Each resulting solution (100 μL) was added to the upper chamber. The cells were cultured at 37° C. for 6 hours in a CO2 incubator. The upper chamber was taken out and then the cells were fixed with PBS containing 70% methyl alcohol for 10 minutes, followed by washing with PBS twice. The cells were stained with hematoxylin (Sigma) for 10 minutes and then washed with distilled water. The non-migrated cells were removed from the upper portion of the polycarbonate membrane with a cotton swab. The membranes were excised and separated from the chamber, and then mounted to a slide using a gel mount reagent (Biomeda, USA). The migrated cells (attached to the lower face of the membrane) were counted at three randomly selected sites under a microscope (×20). The cell counting was performed with the Image J program. From the counted cell numbers, each IC50 value was calculated by non-linear regression curve fit using the “GraphPad Prism” program.
The cells are pulled by laminin residing in the lower chamber and then passed through the polycarbonate membrane, so as to attach to the lower face of the membrane.

| Compound | IC50 [µM] |
| --- | --- |
| CCC(C(=O)O)n1c(=NC(=O)c2ccc(C)cc2)sc2cc(C)c(C)cc21 (stereo not shown) [Example 6, 2-{5,6-dimethyl-2-[(4-methylbenzoyl)imino]benzo[d]thiazol-3(2H)-yl}butanoic acid] | 26.5 |
| CCC(C(=O)O)n1c(=NC(=O)c2ccc(C)cc2)sc2cc(C)c(F)cc21 (stereo not shown) [Example 16, 2-{5-fluoro-6-methyl-2-[(4-methylbenzoyl)imino]benzo[d]thiazol-3(2H)-yl}butanoic acid] | 11.8 |
| CCC(C(=O)O)n1c(=NC(=O)c2ccc(C)cc2)sc2cc([N+](=O)[O-])ccc21 (stereo not shown) [Example 23, 2-{2-[(4-methylbenzoyl)imino]-6-nitrobenzo[d]thiazol-3(2H)-yl}butanoic acid] | 23.7 |
| CCC(C(=O)O)n1c(=NC(=O)c2ccc(OC)cc2)sc2ccccc21 (stereo not shown) [Example 60, 2-[2-(4-methoxybenzoylimino)benzo[d]thiazol-3(2H)-yl]butanoic acid] | 26.9 |
| CCC(C(=O)O)n1c(=NC(=O)c2cccc(Br)c2)sc2ccccc21 (stereo not shown) [Example 83, 2-[2-(3-bromobenzoylimino)benzo[d]thiazol-3(2H)-yl]butanoic acid] | 12.3 |
| CCC(C(=O)O)n1c(=NC(=O)c2ccc(C)cc2)sc2ccc(F)cc21 (stereo not shown) [Example 90, 2-[5-fluoro-2-(4-methylbenzoylimino)benzo[d]thiazol-3(2H)-yl]butanoic acid] | 31.6 |
| CCC(C(=O)O)n1c(=NC(=O)c2ccc(C)cc2)sc2ccc(C)cc21 (stereo not shown) [Example 100, 2-[5-methyl-2-(4-methylbenzoylimino)benzo[d]thiazol-3(2H)-yl]butanoic acid] | 43 |
| Cc1ccc(C(=O)N=c2sc3c(C)cccc3n2C(C)C(=O)O)cc1 (stereo not shown) [Example 103, 2-[7-methyl-2-(4-methylbenzoylimino)benzo[d]thiazol-3(2H)-yl]propionic acid] | 28 |
| CCC(C(=O)O)n1c(=NC(=O)c2ccc(C)cc2)sc2ccc(Cl)cc21 (stereo not shown) [Example 105, 2-[5-chloro-2-(4-methylbenzoylimino)benzo[d]thiazol-3(2H)-yl]butanoic acid] | 19 |
| O=C(O)Cn1c(=NC(=O)c2cccc(Cl)c2)sc2ccccc21 [Example 123, 2-[2-(3-chlorobenzoylimino)benzo[d]thiazol-3(2H)-yl]acetic acid] | 40.1 |
| CCCCCCC(C(=O)O)n1c(=NC(=O)c2ccc(C)cc2)sc2ccccc21 (stereo not shown) [Example 147, 2-[2-(4-methylbenzoylimino)benzo[d]thiazol-3(2H)-yl]octanoic acid] | 5.7 |
| CCC(C(=O)O)n1c(=NC(=O)c2ccc(C)cc2)sc2cc(F)ccc21 (stereo not shown) [Example 153, 2-[6-fluoro-2-(4-methylbenzoylimino)benzo[d]thiazol-3(2H)-yl]butanoic acid] | 31.1 |
| CCC(C(=O)O)n1c(=NC(=O)c2cccc(Cl)c2)sc2cc3c(cc21)OCO3 (stereo not shown) [Example 240, 2-(6-((3-chlorobenzoyl)imino)-[1,3]dioxolo[4′,5′:4,5]benzo[1,2-d]thiazol-7(6H)-yl)butanoic acid] | 16 |
| O=C(O)Cn1c(=NC(=O)c2cccc(Cl)c2)sc2c(F)cccc21 [Example 347, 2-(2-((3-chlorobenzoyl)imino)-7-fluorobenzo[d]thiazol-3(2H)-yl)acetic acid] | 109 |
| O=C(O)Cn1c(=NC(=O)c2cccc(Cl)c2)sc2c(Cl)cccc21 [Example 358, 2-(7-chloro-2-((3-chlorobenzoyl)imino)benzo[d]thiazol-3(2H)-yl)acetic acid] | 29.4 |

Next, values leading:

| IC50 [µM] | Compound |
| --- | --- |
| 21.5 | CCC(C(=O)O)n1c(=NC(=O)c2ccc(C)cc2)sc2cc(OC(F)(F)F)ccc21 (stereo not shown) [Example 14, 2-{2-[(4-methylbenzoyl)imino]-6-(trifluoromethoxy)benzo[d]thiazol-3(2H)-yl]butanoic acid] |
| 59 | COc1ccc2c(c1)sc(=NC(=O)c1cccc(Cl)c1)n2C(C)C(=O)O (stereo not shown) [Example 53, 2-{2-[(3-chlorobenzoyl)imino]-6-methoxybenzo[d]thiazol-3(2H)-yl}propionic acid] |
| 16.5 | CCC(C(=O)O)n1c(=NC(=O)c2cccc(Cl)c2)sc2cc(C(F)(F)F)ccc21 (stereo not shown) [Example 173, 2-(2-((3-chlorobenzoyl)imino)-6-(trifluoromethyl)benzo[d]thiazol-3(2H)-yl)butanoic acid] |
| 101 | CC(C(=O)O)n1c(=NC(=O)c2ccc(C(F)(F)F)cc2)sc2ccccc21 (stereo not shown) [Example 186, 2-(2-(4-(trifluoromethyl)benzoylimino)benzo[d]thiazol-3(2H)-yl)propionic acid] |
| 87 | COc1ccc2c(c1)sc(=NC(=O)c1cccc(C(F)(F)F)c1)n2C(C)C(=O)O (stereo not shown) [Example 189, 2-(6-methoxy-2-((3-(trifluoromethyl)benzoyl)imino)benzo[d]thiazol-3(2H)-yl)propionic acid] |
| 33 | CCOc1ccc2c(c1)sc(=NC(=O)c1cccc(C(F)(F)F)c1)n2C(C)C(=O)O (stereo not shown) [Example 192, 2-(6-ethoxy-2-((3-(trifluoromethyl)benzoyl)imino)benzo[d]thiazol-3(2H)-yl)propionic acid] |
| 87 | Cc1ccc2c(c1)sc(=NC(=O)c1cccc(C(F)(F)F)c1)n2C(C)C(=O)O (stereo not shown) [Example 195, 2-(6-methyl-2-((3-(trifluoromethyl)benzoyl)imino)benzo[d]thiazol-3(2H)-yl)propionic acid] |
| 33 | Cc1cc2sc(=NC(=O)c3cccc(Cl)c3)n(C(C)C(=O)O)c2cc1C (stereo not shown) [Example 212, 2-(2-((3-chlorobenzoyl)imino)-5,6-dimethylbenzo[d]thiazol-3(2H)-yl)propionic acid] |
| 1 | CC(C(=O)O)n1c(=NC(=O)c2cccc(Cl)c2)sc2c(C(F)(F)F)cccc21 (stereo not shown) [Example 270, 2-(2-(3-chlorobenzoylimino)-7-(trifluoromethyl)benzo[d]thiazol-3(2H)-yl)propionic acid] |
| 25 | COc1cccc2sc(=NC(=O)c3cccc(Cl)c3)n(C(C)C(=O)O)c12 (stereo not shown) [Example 282, 2-(2-(3-chlorobenzoylimino)-4-methoxybenzo[d]thiazol-3(2H)-yl)propionic acid] |
| 60 | CC(C(=O)O)n1c2c(sc1=NC(=O)c1cccc(C(F)(F)F)c1)CCCC2 (stereo not shown) [Example 295, 2-(2-(3-(trifluoromethyl)benzoylimino)-4,5,6,7-tetrahydrobenzo[d]thiazol-3(2H)-yl)propionic acid] |
| 46 | Cc1cccc2c1sc(=NC(=O)c1cccc(C(F)(F)F)c1)n2C(C)C(=O)O (stereo not shown) [Example 314, 2-(7-methyl-2-(3-(trifluoromethyl)benzoylimino)benzo[d]thiazol-3(2H)-yl)propionic acid] |
| 124 | CC(C(=O)O)n1c(=NC(=O)c2cccc(C(F)(F)F)c2)sc2c(F)cccc21 (stereo not shown) [Example 346, 2-(7-fluoro-2-((3-(trifluoromethyl)benzoyl)imino)benzo[d]thiazol-3(2H)-yl)propionic acid] |
| 92.4 | CC(C(=O)O)n1c(=NC(=O)c2cccc(Cl)c2)sc2c(F)cccc21 (stereo not shown) [Example 373, 2-(2-((3-chlorobenzoyl)imino)-7-fluorobenzo[d]thiazol-3(2H)-yl)propionic acid] |
| 36.2 | CC(C(=O)O)n1c(=NC(=O)c2cccc(C(F)(F)F)c2)sc2c(F)c(F)c(F)cc21 (stereo not shown) [Example 380, 2-(5,6,7-trifluoro-2-((3-(trifluoromethyl)benzoyl)imino)benzo[d]thiazol-3(2H)-yl)propionic acid] |

Same assay, conditions: laminin 10 μg/mL in lower well, test compounds 0.39˜100 μM, 6 hours at 37° C.

| Compound | IC50 [µM] |
| --- | --- |
| Cc1ccc(C(=O)N=c2sc3ccccc3n2C(C(=O)O)c2ccccc2)cc1 (stereo not shown) [Example 152] | 22.7 |
